Holding throughout (experiment): Kinase inhibitor library screening, PrestoBlue cell viability, 1 or 10 μM, 72 h
Test [1] deals with 501Mel-GP cells (Dabrafenib-resistant). As to conditions: 72 h.
Test [2] deals with 501Mel-XP cells (Vemurafenib-resistant). As to conditions: 72 h.
The subject of test [3] is A375-XP cells (Vemurafenib-resistant).
In a further test the test system is A375 cells (parental).
The subject of a further test is IGR37 cells (parental).
The test system of a further test is 501Mel cells (parental). The following applies: 72 h. In short, it runs like this: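 Values are % viability versus untreated wells, measured by PrestoBlue after a 72 h drug exposure. Screens covered the parental line plus sublines rendered resistant to Vemurafenib or Dabrafenib, each analysed in at least duplicate.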
Test [4] relates to A375-GP cells (Dabrafenib-resistant).
In test [5] the test system is IGR37-XP cells (Vemurafenib-resistant).
The subject of test [6] is IGR37-GP cells (Dabrafenib-resistant).

Molecules are shown by their SMILES. Structures can show the parent of a compound that is named as a salt.

As for `Nc1ccc(C(=O)Nc2cccc(-c3nc(N4CCOCC4)c4oc5ncccc5c4n3)c2)cn1` [YM201636], in [1] (501Mel GP, 10μΜ, in %), the “Cell viability in kinase inhibitor library screening, 501Mel GP, 10μΜ” value is listed as 31.8. The “Cell viability in kinase inhibitor library screening, 501Mel XP, 1μΜ” value in [2] (501Mel XP, 1μΜ, in %) was determined as 91.0. Further, in test [2] (501Mel XP, 10μΜ, in %), the “Cell viability in kinase inhibitor library screening, 501Mel XP, 10μΜ” value was found to be 17.1. The “Cell viability in kinase inhibitor library screening, A375 XP, 1μΜ” value in test [3] (A375 XP, 1μΜ, 72 h) is on record as 100.1. Moreover, the “Cell viability in kinase inhibitor library screening, A375 XP, 10μΜ” value in test [3] (A375 XP, 10μΜ, 72 h) is listed as 52.8. In addition, the “Cell viability in kinase inhibitor library screening, A375 Parental, 10μΜ” value with A375 cells (parental) (A375 Parental, 10μΜ, 72 h) is 56.6. Further, the “Cell viability in kinase inhibitor library screening, A375 Parental, 1μΜ” value in the test on A375 cells (parental) (A375 Parental, 1μΜ, 72 h) is 99.8. Further, the “Cell viability in kinase inhibitor library screening, IGR37 Parental, 1μΜ” value in the test on IGR37 cells (parental) (IGR37 Parental, 1μΜ, 72 h, in %) was 90.0. Further, the “Cell viability in kinase inhibitor library screening, IGR37 Parental, 10μΜ” value in the test on IGR37 cells (parental) (IGR37 Parental, 10μΜ, 72 h, in %) is 53.4. For the same molecule, in the test with 501Mel cells (parental) (501Mel Parental, 10μΜ, in %), the “Cell viability in kinase inhibitor library screening, 501Mel Parental, 10μΜ” value worked out at 44.1. Also, in test [4] (A375 GP, 1μΜ, 72 h), the “Cell viability in kinase inhibitor library screening, A375 GP, 1μΜ” value is listed as 96.0. In addition, the “Cell viability in kinase inhibitor library screening, A375 GP, 10μΜ” value in test [4] (A375 GP, 10μΜ, 72 h) is on record as 53.2. Also, the Cell viability in kinase inhibitor library screening, IGR37 XP, 10μΜ in test [5] (IGR37 XP, 10μΜ, 72 h) was 1.2%. Besides, the “Cell viability in kinase inhibitor library screening, IGR37 XP, 1μΜ” value in [5] (IGR37 XP, 1μΜ, 72 h, in %) worked out at 35.0. Besides, the Cell viability in kinase inhibitor library screening, IGR37 GP, 10μΜ in [6] (IGR37 GP, 10μΜ, 72 h) is 3.3%. In addition, in [6] (IGR37 GP, 1μΜ, 72 h, in %), the “Cell viability in kinase inhibitor library screening, IGR37 GP, 1μΜ” value stood at 56.3.

Regarding `O=C(Nc1ccc(OC(F)(F)F)cc1)c1sccc1NCc1ccnc2ccccc12` [OSI-930], the “cell viability (kinase inhibitor library screening)” value is 96.5% in test [1] (501Mel GP, 1μΜ); 73.5% in test [1] (501Mel GP, 10μΜ); 92.9% in test [2] (501Mel XP, 1μΜ); 73.6% in [2] (501Mel XP, 10μΜ); 93.4% in test [3] (A375 XP, 1μΜ, 72 h); 71.6% in test [3] (A375 XP, 10μΜ, 72 h). For the same molecule, the “cell viability (kinase inhibitor library screening)” value in the test with A375 cells (parental) (A375 Parental, 10μΜ, 72 h) worked out at 77.6%; in the test with A375 cells (parental) (A375 Parental, 1μΜ, 72 h) it was 97.9%; with IGR37 cells (parental) (IGR37 Parental, 1μΜ, 72 h) it was 96.0%; with IGR37 cells (parental) (IGR37 Parental, 10μΜ, 72 h), 89.7%; in the test on 501Mel cells (parental) (501Mel Parental, 1μΜ) it was 100.2%; in the test on 501Mel cells (parental) (501Mel Parental, 10μΜ), 85.8%. For the same molecule, the “cell viability (kinase inhibitor library screening)” value amounted to 86.8% in test [4] (A375 GP, 1μΜ, 72 h); 55.3% in test [4] (A375 GP, 10μΜ, 72 h); 100.2% in test [5] (IGR37 XP, 1μΜ, 72 h); 70.0% in test [5] (IGR37 XP, 10μΜ, 72 h); 88.5% in test [6] (IGR37 GP, 1μΜ, 72 h); 90.3% in [6] (IGR37 GP, 10μΜ, 72 h).

One may read the viability as a per cent measure of how many cells are alive, often set against a control. Regarding `C#Cc1cccc(Nc2ncnc3cc(OCCOC)c(OCCOC)cc23)c1` [Erlotinib HCl], the viability at 1 µM stood at 95% in test [1] (Homo sapiens, read-out: cell viability, 501Mel GP, 1μΜ); 86.3% in [2] (Homo sapiens, read-out: cell viability, 501Mel XP, 1μΜ); 100% in test [3] (Homo sapiens, A-375, 72 h, read-out: cell viability, A375 XP, 1μΜ); 100% in the test with A375 cells (parental) (Homo sapiens, A-375, 72 h, read-out: cell viability, A375 Parental, 1μΜ); 95.5% in the test on IGR37 cells (parental) (Homo sapiens, IGR-37, 72 h, read-out: cell viability, IGR37 Parental, 1μΜ); 97.2% with 501Mel cells (parental) (Homo sapiens, read-out: cell viability, 501Mel Parental, 1μΜ). In addition, the viability at 1 µM in test [4] (Homo sapiens, A-375, 72 h, read-out: cell viability, A375 GP, 1μΜ) was 96.2%; in test [5] (Homo sapiens, IGR-37, 72 h, read-out: cell viability, IGR37 XP, 1μΜ), 92.4%; in test [6] (Homo sapiens, IGR-37, 72 h, read-out: cell viability, IGR37 GP, 1μΜ), 93.1%. Besides, the viability at 10 µM in [1] (Homo sapiens, read-out: cell viability, 501Mel GP, 10μΜ) is 61.2%; in [2] (Homo sapiens, read-out: cell viability, 501Mel XP, 10μΜ) it was 38%; in test [3] (Homo sapiens, A-375, 72 h, read-out: cell viability, A375 XP, 10μΜ), 83.4%; in the test with A375 cells (parental) (Homo sapiens, A-375, 72 h, read-out: cell viability, A375 Parental, 10μΜ) it was 73.4%; with IGR37 cells (parental) (Homo sapiens, IGR-37, 72 h, read-out: cell viability, IGR37 Parental, 10μΜ), 92%; with 501Mel cells (parental) (Homo sapiens, read-out: cell viability, 501Mel Parental, 10μΜ), 84.3%. Also, the viability at 10 µM came out at 69.1% in [4] (Homo sapiens, A-375, 72 h, read-out: cell viability, A375 GP, 10μΜ); 51.9% in test [5] (Homo sapiens, IGR-37, 72 h, read-out: cell viability, IGR37 XP, 10μΜ); 67.5% in test [6] (Homo sapiens, IGR-37, 72 h, read-out: cell viability, IGR37 GP, 10μΜ).

These data come from paper PMC6364417, “Kinase inhibitor library screening identifies synergistic drug combinations effective in sensitive and resistant melanoma cells” (Journal of Experimental & Clinical Cancer Research : CR, 2019).
